Assay results from ChEMBL document CHEMBL4251615, “Discovery of anilino-furo[2,3-d]pyrimidine derivatives as dual inhibitors of EGFR/HER2 tyrosine kinase and their anticancer activity” (Eur J Med Chem, 2018).

Key:
Assay type in all cases: functional
COLO 205 = experiment: Growth inhibition of human COLO205 cells assessed as cell growth at 10 uM incubated for 48 hrs by sulforhodamine B assay relative to control; conditions: COLO 205, 48 h, read-out: Activity
RPMI-8226 = experiment: Growth inhibition of human RPMI8226 cells assessed as cell growth at 10 uM incubated for 48 hrs by sulforhodamine B assay relative to control; conditions: RPMI-8226, 48 h, read-out: Activity
A549 = experiment: Growth inhibition of human A549/ATCC cells assessed as cell growth at 10 uM incubated for 48 hrs by sulforhodamine B assay relative to control; conditions: A549, 48 h, read-out: Activity
SK-MEL-28 = experiment: Growth inhibition of human SK-MEL-28 cells assessed as cell growth at 10 uM incubated for 48 hrs by sulforhodamine B assay relative to control; conditions: SK-MEL-28, 48 h, read-out: Activity
SW-620 = experiment: Growth inhibition of human SW620 cells assessed as cell growth at 10 uM incubated for 48 hrs by sulforhodamine B assay relative to control; conditions: SW-620, 48 h, read-out: Activity
CCRF-CEM = experiment: Growth inhibition of human CCRF-CEM cells assessed as cell growth at 10 uM incubated for 48 hrs by sulforhodamine B assay relative to control; conditions: read-out: Activity
MDA-MB-435 = experiment: Growth inhibition of human MDA-MB-435 cells assessed as cell growth at 10 uM incubated for 48 hrs by sulforhodamine B assay relative to control; conditions: MDA-MB-435, 48 h, read-out: Activity
SN12C = experiment: Growth inhibition of human SN12C cells assessed as cell growth at 10 uM incubated for 48 hrs by sulforhodamine B assay relative to control; conditions: read-out: Activity
TK-10 = experiment: Growth inhibition of human TK10 cells assessed as cell growth at 10 uM incubated for 48 hrs by sulforhodamine B assay relative to control; conditions: TK-10, 48 h, read-out: Activity
HCC 2998 = experiment: Growth inhibition of human HCC2998 cells assessed as cell growth at 10 uM incubated for 48 hrs by sulforhodamine B assay relative to control; conditions: HCC 2998, 48 h, read-out: Activity
NCI-H23 = experiment: Growth inhibition of human NCI-H23 cells assessed as cell growth at 10 uM incubated for 48 hrs by sulforhodamine B assay relative to control; conditions: NCI-H23, 48 h, read-out: Activity
SK-MEL-5 = experiment: Growth inhibition of human SK-MEL-5 cells assessed as cell growth at 10 uM incubated for 48 hrs by sulforhodamine B assay relative to control; conditions: SK-MEL-5, 48 h, read-out: Activity
Hs-578T = experiment: Growth inhibition of human Hs 578T cells assessed as cell growth at 10 uM incubated for 48 hrs by sulforhodamine B assay relative to control; conditions: read-out: Activity
KM12 = experiment: Growth inhibition of human KM12 cells assessed as cell growth at 10 uM incubated for 48 hrs by sulforhodamine B assay relative to control; conditions: KM12, 48 h, read-out: Activity
Malme-3M = experiment: Growth inhibition of human MALME-3M cells assessed as cell growth at 10 uM incubated for 48 hrs by sulforhodamine B assay relative to control; conditions: read-out: Activity
SK-OV-3 = experiment: Growth inhibition of human SKOV3 cells assessed as cell growth at 10 uM incubated for 48 hrs by sulforhodamine B assay relative to control; conditions: SK-OV-3, 48 h, read-out: Activity
M14 = experiment: Growth inhibition of human M14 cells assessed as cell growth at 10 uM incubated for 48 hrs by sulforhodamine B assay relative to control; conditions: M14, 48 h, read-out: Activity
SNB-75 = experiment: Growth inhibition of human SNB75 cells assessed as cell growth at 10 uM incubated for 48 hrs by sulforhodamine B assay relative to control; conditions: SNB-75, 48 h, read-out: Activity
786-0 = experiment: Growth inhibition of human 786-0 cells assessed as cell growth at 10 uM incubated for 48 hrs by sulforhodamine B assay relative to control; conditions: 786-0, 48 h, read-out: Activity
SK-MEL-2 = experiment: Growth inhibition of human SK-MEL-2 cells assessed as cell growth at 10 uM incubated for 48 hrs by sulforhodamine B assay relative to control; conditions: SK-MEL-2, 48 h, read-out: Activity
OVCAR-5 = experiment: Growth inhibition of human OVCAR5 cells assessed as cell growth at 10 uM incubated for 48 hrs by sulforhodamine B assay relative to control; conditions: OVCAR-5, 48 h, read-out: Activity
UO-31 = experiment: Growth inhibition of human UO31 cells assessed as cell growth at 10 uM incubated for 48 hrs by sulforhodamine B assay relative to control; conditions: UO-31, 48 h, read-out: Activity
HT-29 = experiment: Growth inhibition of human HT-29 cells assessed as cell growth at 10 uM incubated for 48 hrs by sulforhodamine B assay relative to control; conditions: HT-29, 48 h, read-out: Activity
PC-3 = experiment: Growth inhibition of human PC3 cells assessed as cell growth at 10 uM incubated for 48 hrs by sulforhodamine B assay relative to control; conditions: PC-3, 48 h, read-out: Activity
HCT-116 = experiment: Growth inhibition of human HCT116 cells assessed as cell growth at 10 uM incubated for 48 hrs by sulforhodamine B assay relative to control; conditions: HCT-116, 48 h, read-out: Activity
UACC-62 = experiment: Growth inhibition of human UACC62 cells assessed as cell growth at 10 uM incubated for 48 hrs by sulforhodamine B assay relative to control; conditions: UACC-62, 48 h, read-out: Activity
NCI-H522 = experiment: Growth inhibition of human NCI-H522 cells assessed as cell growth at 10 uM incubated for 48 hrs by sulforhodamine B assay relative to control; conditions: NCI-H522, 48 h, read-out: Activity
OVCAR-8 = experiment: Growth inhibition of human OVCAR8 cells assessed as cell growth at 10 uM incubated for 48 hrs by sulforhodamine B assay relative to control; conditions: OVCAR-8, 48 h, read-out: Activity
DU-145 = experiment: Growth inhibition of human DU145 cells assessed as cell growth at 10 uM incubated for 48 hrs by sulforhodamine B assay relative to control; conditions: DU-145, 48 h, read-out: Activity
EKVX = experiment: Growth inhibition of human EKVX cells assessed as cell growth at 10 uM incubated for 48 hrs by sulforhodamine B assay relative to control; conditions: read-out: Activity
HL-60(TB) = experiment: Growth inhibition of human HL-60(TB) cells assessed as cell growth at 10 uM incubated for 48 hrs by sulforhodamine B assay relative to control; conditions: HL-60, 48 h, read-out: Activity
MOLT-4 = experiment: Growth inhibition of human MOLT4 cells assessed as cell growth at 10 uM incubated for 48 hrs by sulforhodamine B assay relative to control; conditions: MOLT-4, 48 h, read-out: Activity
SR = experiment: Growth inhibition of human SR cells assessed as cell growth at 10 uM incubated for 48 hrs by sulforhodamine B assay relative to control; conditions: read-out: Activity

SMILES	growth at 10 µM (COLO 205)	growth at 10 µM (RPMI-8226)	growth at 10 µM (A549)	growth at 10 µM (SK-MEL-28)	growth at 10 µM (SW-620)	growth at 10 µM (MDA-MB-435)	growth at 10 µM (SN12C)	growth at 10 µM (TK-10)	growth at 10 µM (HCC 2998)	growth at 10 µM (NCI-H23)	growth at 10 µM (SK-MEL-5)	growth at 10 µM (Hs-578T)	growth at 10 µM (KM12)	growth at 10 µM (Malme-3M)	growth at 10 µM (SK-OV-3)	growth at 10 µM (M14)	growth at 10 µM (SNB-75)	growth at 10 µM (786-0)	growth at 10 µM (SK-MEL-2)	growth at 10 µM (OVCAR-5)	other results
CCOC(=O)c1c(C)oc2ncnc(Nc3ccc(F)cc3)c12	102%	103%	99.4%	97.5%	94.9%	101%	92.9%	96.5%	108%	91.9%	102%	96.1%	97.6%	95.4%	104%	103%	94.7%	93.1%	103%	91.4%	growth at 10 µM (CCRF-CEM): 31.3%; growth at 10 µM (UO-31): 92.4%; growth at 10 µM (HT-29): 95.3%; growth at 10 µM (PC-3): 111%; growth at 10 µM (HCT-116): 98.9%; growth at 10 µM (UACC-62): 88.6%; growth at 10 µM (NCI-H522): 92.9%; growth at 10 µM (OVCAR-8): 106%; growth at 10 µM (DU-145): 101%
Cc1oc2ncnc(Nc3ccc(OCc4cccc(F)c4)c(Cl)c3)c2c1C(=O)NCCO	85.7%	70.2%	53.5%	50.6%	93.4%	62.6%	45.3%	74.7%	79.1%	58.6%	73.1%	46.1%	68.9%	52.3%	74.2%	66.9%	40.5%	61.2%	78.5%	96.9%	growth at 10 µM (EKVX): 47.8%; growth at 10 µM (CCRF-CEM): 89.5%; growth at 10 µM (HL-60(TB)): 42.4%; growth at 10 µM (MOLT-4): 68.5%; growth at 10 µM (SR): 99.7%; growth at 10 µM (UO-31): 57.6%; growth at 10 µM (HT-29): 73%; growth at 10 µM (PC-3): 57.5%; growth at 10 µM (HCT-116): 64.9%; growth at 10 µM (UACC-62): 55%; growth at 10 µM (NCI-H522): 27.9%; growth at 10 µM (OVCAR-8): 42.8%; growth at 10 µM (DU-145): 61.7%
Cc1oc2ncnc(Nc3cccc(F)c3)c2c1C(=O)NCCO	111%	106%	91%	104%	103%	108%	98.7%	90.1%	114%	99.6%	102%	103%	97.9%	118%	89.2%	109%	92.2%	93%	103%	100%	growth at 10 µM (CCRF-CEM): 117%; growth at 10 µM (UO-31): 96.5%; growth at 10 µM (HT-29): 96.8%; growth at 10 µM (PC-3): 111%; growth at 10 µM (HCT-116): 105%; growth at 10 µM (UACC-62): 92.2%; growth at 10 µM (NCI-H522): 88.4%; growth at 10 µM (OVCAR-8): 105%; growth at 10 µM (DU-145): 105%
CCOC(=O)c1c(C)oc2ncnc(Nc3ccc(F)c(Cl)c3)c12	110%	101%	86.9%	110%	101%	114%	92.2%	114%	109%	88%	94.5%	97%	104%	114%	90.7%	110%	113%	104%	95.5%	112%	growth at 10 µM (EKVX): 108%; growth at 10 µM (HL-60(TB)): 101%; growth at 10 µM (MOLT-4): 99.2%; growth at 10 µM (SR): 96.8%; growth at 10 µM (UO-31): 88.5%; growth at 10 µM (HT-29): 92.8%; growth at 10 µM (PC-3): 85.6%; growth at 10 µM (HCT-116): 103%; growth at 10 µM (UACC-62): 94.9%; growth at 10 µM (NCI-H522): 74.6%; growth at 10 µM (OVCAR-8): 100%; growth at 10 µM (DU-145): 103%
